This assay has as its system CD8F1 mice, subcutaneous mammary adenocarcinoma, T/C%. The assay can be described thus: NCI In Vivo Anticancer Drug Screen. Data for tumor model Mammary Adenocarcinoma CD8F1 (subcutaneous) in CD8F1. The following applies: higher = larger tumour. The procedure: The antitumor activity of compounds was measured in mice bearing transplantable tumors. Survival or tumor size were measured and the results are expressed as the measurement made in the treated group (T) divided by the measurement made in the vehicle treated control group (C). The tumor model used in this assay is Mammary Adenocarcinoma CD8F1 (subcutaneous) in CD8F1

Where [1] appears, read: endpoint: median tumor weight (est.), dose: 6.25 mg/kg/injection, schedule: Q07DX005 (ip), vehicle: saline with Tween-80.
Where [2] appears, read: endpoint: median tumor weight (est.), dose: 12.5 mg/kg/injection, schedule: Q07DX005 (ip), vehicle: saline with Tween-80.
[3] abbreviates: endpoint: median tumor weight (est.), dose: 25.0 mg/kg/injection, schedule: Q07DX005 (ip), vehicle: saline with Tween-80.
The mark [4] stands for this setting: endpoint: median tumor weight (est.), dose: 50.0 mg/kg/injection, schedule: Q07DX005 (ip), vehicle: saline with Tween-80.
Setting [5] is: endpoint: median tumor weight change, dose: 16.0 mg/kg/injection, schedule: Q01DX001 (ip), vehicle: saline + alcohol.
The mark [6] stands for this setting: endpoint: median tumor weight change, dose: 31.0 mg/kg/injection, schedule: Q01DX001 (ip), vehicle: saline + alcohol.
[7] abbreviates: endpoint: median tumor weight change, dose: 62.0 mg/kg/injection, schedule: Q01DX001 (ip), vehicle: saline + alcohol.
Setting [8] is: endpoint: median tumor weight change, dose: 62.5 mg/kg/injection, schedule: Q01DX001 (ip), vehicle: saline + alcohol.
Where [9] appears, read: endpoint: median tumor weight change, dose: 125.0 mg/kg/injection, schedule: Q01DX001 (ip), vehicle: saline + alcohol.

“And” between values parts separate entries of the source, which are not always exact repeats. Equal values may be shown once. Results filed as inconclusive are left out.

Turning to `O=C1N=C(Oc2ccccc2)SC1=O`, the T/C was 43 % of control (endpoint: median tumor weight change, dose: 62.5 mg/kg/injection, schedule: Q01DX001 (ip), vehicle: saline with Tween-80) and 66 % of control (endpoint: median tumor weight change, dose: 125.0 mg/kg/injection, schedule: Q01DX001 (ip), vehicle: DMSO).

As for `CC[C@]1(O)C[C@H](OC2CC(N(C)C)C(OC3CC(O)C(O)C(C)O3)C(C)O2)c2c(cc3c(c2O)C(=O)c2c(O)ccc(O)c2C3=O)[C@H]1C(=O)OC` (some centres undefined), the T/C is 170 % of control (endpoint: median tumor weight (est.), dose: 0.5 mg/kg/injection, schedule: Q07DX005 (ip), vehicle: Klucel (hydroxypropylcellulose) (HPC)); 204 % of control (endpoint: median tumor weight (est.), dose: 1.0 mg/kg/injection, schedule: Q07DX005 (ip), vehicle: Klucel (hydroxypropylcellulose) (HPC)); 63 % of control (endpoint: median tumor weight (est.), dose: 4.0 mg/kg/injection, schedule: Q07DX005 (ip), vehicle: Klucel (hydroxypropylcellulose) (HPC)).

In the case of `CS(=O)(=O)c1ncc(Br)cn1`, the T/C under setting [1] was 242 % of control; the T/C under setting [2] was 405 % of control; the T/C under setting [3] was 222 % of control; the T/C under setting [4] was 286 % of control; the T/C (endpoint: median tumor weight (est.), dose: 100.0 mg/kg/injection, schedule: Q07DX005 (ip), vehicle: saline with Tween-80) was 348 % of control; the T/C (endpoint: median tumor weight (est.), dose: 200.0 mg/kg/injection, schedule: Q07DX005 (ip), vehicle: saline with Tween-80) was 311 % of control.

Take `O=c1s[se]c2ccccc12`: the T/C (endpoint: median tumor weight (est.), dose: 3.12 mg/kg/injection, schedule: Q07DX005 (ip), vehicle: saline with Tween-80) is 86 % of control; the T/C under setting [1] is 187 % of control; the T/C under setting [2] is 156 % of control; the T/C under setting [3] was 82 % of control; the T/C under setting [4] was 81 % of control.

`O=C(O)C1CC(c2ccccc2)=NN1c1ccccc1` (centres undefined): the T/C reads like this: (endpoint: median tumor weight (est.), dose: 12.5 mg/kg/injection, schedule: Q07DX005 (ip), vehicle: water) 101 % of control; (endpoint: median tumor weight (est.), dose: 25.0 mg/kg/injection, schedule: Q07DX005 (ip), vehicle: water) 83 % of control; (endpoint: median tumor weight (est.), dose: 50.0 mg/kg/injection, schedule: Q07DX005 (ip), vehicle: water) 83 % of control; (endpoint: median tumor weight (est.), dose: 100.0 mg/kg/injection, schedule: Q07DX005 (ip), vehicle: water) 78 % of control; (endpoint: median tumor weight (est.), dose: 200.0 mg/kg/injection, schedule: Q07DX005 (ip), vehicle: water) 70 % of control.

As for `COc1cc(C2c3cc4c(cc3C(O)C(CO)C2CO)OCO4)cc(OC)c1OC` (centres undefined), the T/C reads like this: (endpoint: median tumor weight change, dose: 125.0 mg/kg/injection, schedule: Q01DX001 (ip), vehicle: saline with Tween-80) 85 % of control; (endpoint: median tumor weight change, dose: 250.0 mg/kg/injection, schedule: Q01DX001 (ip), vehicle: saline with Tween-80) 102 % of control; (endpoint: median tumor weight change, dose: 500.0 mg/kg/injection, schedule: Q01DX001 (ip), vehicle: saline with Tween-80) 77 % of control; (endpoint: median tumor weight change, dose: 1000.0 mg/kg/injection, schedule: Q01DX001 (ip), vehicle: saline with Tween-80) 95 % of control; (endpoint: median tumor weight change, dose: 2000.0 mg/kg/injection, schedule: Q01DX001 (ip), vehicle: saline with Tween-80) 50 % of control.

Regarding `CSc1ncnc2c1ncn2C1OC(CO)C(O)C1O` (centres undefined), the T/C is, setting by setting: under setting [5], 67 % of control; under setting [6], 82 % of control; under setting [7], 52 % of control; under setting [8], 79 % of control; under setting [9], 52 % of control and 70 % of control; (endpoint: median tumor weight change, dose: 250.0 mg/kg/injection, schedule: Q01DX001 (ip), vehicle: saline + alcohol) 10 % of control and 12 % of control.

For `COc1cc([C@@H]2c3cc4c(cc3[C@@H](OC3OC5COC(C)OC5C(O)C3O)[C@H]3COC(=O)[C@H]23)OCO4)cc(OC)c1O` (some centres undefined), the T/C runs as follows: (endpoint: median tumor weight (est.), dose: 2.0 mg/kg/injection, schedule: Q07DX005 (ip), vehicle: saline) 74 % of control; (endpoint: median tumor weight (est.), dose: 4.0 mg/kg/injection, schedule: Q07DX005 (ip), vehicle: saline) 110 % of control; (endpoint: median tumor weight (est.), dose: 8.0 mg/kg/injection, schedule: Q07DX005 (ip), vehicle: saline) 51 % of control; (endpoint: median tumor weight (est.), dose: 16.0 mg/kg/injection, schedule: Q07DX005 (ip), vehicle: clinical formulation) 38 % of control; (endpoint: median tumor weight (est.), dose: 16.0 mg/kg/injection, schedule: Q07DX005 (ip), vehicle: saline) 25 % of control and 48 % of control; (endpoint: median tumor weight (est.), dose: 32.0 mg/kg/injection, schedule: Q07DX005 (ip), vehicle: clinical formulation) 11 % of control. Under “endpoint: median tumor weight (est.), dose: 32.0 mg/kg/injection, schedule: Q07DX005 (ip), vehicle: saline”, the T/C is 8 % of control and 9 % of control.

Take `O=NN(CCCl)C(=O)NCCCl`: the T/C runs as follows: (endpoint: mean tumor weight (est.), dose: 7.5 mg/kg/injection, schedule: Q07DX003 (ip), vehicle: saline + alcohol) 58 % of control; (endpoint: mean tumor weight (est.), dose: 12.5 mg/kg/injection, schedule: Q07DX003 (ip), vehicle: saline + alcohol) 46 % of control; (endpoint: mean tumor weight (est.), dose: 15.0 mg/kg/injection, schedule: Q07DX003 (ip), vehicle: saline + alcohol) 34 % of control; (endpoint: mean tumor weight, dose: 1.5 mg/kg/injection, schedule: Q01DX009 (ip), vehicle: saline) 52 % of control; (endpoint: mean tumor weight, dose: 3.0 mg/kg/injection, schedule: Q01DX009 (ip), vehicle: saline) 54 % of control; (endpoint: mean tumor weight, dose: 3.75 mg/kg/injection, schedule: Q07DX007 (ip), vehicle: saline + alcohol) 113 % of control. For the same molecule, the T/C (endpoint: mean tumor weight, dose: 6.25 mg/kg/injection, schedule: Q01DX009 (ip), vehicle: saline) is 26 % of control and 29 % of control; the T/C (endpoint: mean tumor weight, dose: 7.5 mg/kg/injection, schedule: Q07DX006 (ip), vehicle: saline + alcohol) was 62 % of control; the T/C (endpoint: mean tumor weight, dose: 7.5 mg/kg/injection, schedule: Q07DX007 (ip), vehicle: saline + alcohol) was 77 % of control; the T/C (endpoint: mean tumor weight, dose: 12.5 mg/kg/injection, schedule: Q07DX006 (ip), vehicle: saline + alcohol) was 33 % of control; the T/C (endpoint: mean tumor weight, dose: 12.5 mg/kg/injection, schedule: Q07DX006 (ip), vehicle: saline) was 5 % of control; the T/C (endpoint: mean tumor weight, dose: 15.0 mg/kg/injection, schedule: Q07DX006 (ip), vehicle: saline + alcohol) was 4 % of control. For the same molecule, the T/C reads like this: (endpoint: mean tumor weight, dose: 15.0 mg/kg/injection, schedule: Q07DX007 (ip), vehicle: saline + alcohol) 60 % of control; (endpoint: median tumor weight (est.), dose: 1.5 mg/kg/injection, schedule: Q01DX005 (ip), vehicle: saline with Tween-80) 49 % of control; (endpoint: median tumor weight (est.), dose: 2.0 mg/kg/injection, schedule: Q04DX005 (ip), vehicle: saline with Tween-80) 99 % of control; (endpoint: median tumor weight (est.), dose: 2.0 mg/kg/injection, schedule: Q07DX005 (ip), vehicle: saline with Tween-80) 40 % of control and 56 % of control and 65 % of control; (endpoint: median tumor weight (est.), dose: 3.0 mg/kg/injection, schedule: Q01DX005 (ip), vehicle: saline with Tween-80) 69 % of control; (endpoint: median tumor weight (est.), dose: 4.0 mg/kg/injection, schedule: Q04DX005 (ip), vehicle: saline with Tween-80) 44 % of control. Besides, the T/C is, setting by setting: (endpoint: median tumor weight (est.), dose: 6.0 mg/kg/injection, schedule: Q01DX005 (ip), vehicle: saline with Tween-80) 29 % of control; (endpoint: median tumor weight (est.), dose: 8.0 mg/kg/injection, schedule: Q04DX005 (ip), vehicle: saline with Tween-80) 10 % of control; (endpoint: median tumor weight (est.), dose: 8.0 mg/kg/injection, schedule: Q07DX005 (ip), vehicle: saline with Tween-80) 27 % of control and 35 % of control and 38 % of control; (endpoint: median tumor weight (est.), dose: 12.0 mg/kg/injection, schedule: Q01DX005 (ip), vehicle: saline with Tween-80) 2 % of control; (endpoint: median tumor weight (est.), dose: 16.0 mg/kg/injection, schedule: Q04DX005 (ip), vehicle: saline with Tween-80) 5 % of control; (endpoint: median tumor weight (est.), dose: 16.0 mg/kg/injection, schedule: Q07DX005 (ip), vehicle: saline with Tween-80) 1 % of control and 2 % of control and 18 % of control. The T/C is, setting by setting: (endpoint: median tumor weight change, dose: 7.81 mg/kg/injection, schedule: Q01DX001 (ip), vehicle: saline + alcohol) 70 % of control; (endpoint: median tumor weight change, dose: 8.0 mg/kg/injection, schedule: Q01DX001 (ip), vehicle: saline + alcohol) 32 % of control; (endpoint: median tumor weight change, dose: 15.62 mg/kg/injection, schedule: Q01DX001 (ip), vehicle: saline + alcohol) 40 % of control; (endpoint: median tumor weight change, dose: 15.62 mg/kg/injection, schedule: Q01DX001 (ip), vehicle: saline with Tween-80) 55 % of control; under setting [5], 31 % of control; under setting [6], 23 % of control. For the same molecule, the T/C runs as follows: (endpoint: median tumor weight change, dose: 31.25 mg/kg/injection, schedule: Q01DX001 (ip), vehicle: saline + alcohol) 31 % of control; (endpoint: median tumor weight change, dose: 31.25 mg/kg/injection, schedule: Q01DX001 (ip), vehicle: saline with Tween-80) 20 % of control; under setting [7], -31 % of control; under setting [8], 17 % of control; under setting [9], -39 % of control.

These data come from PubChem BioAssay AID220 (DTP/NCI, 2004).
